Read-outs that look alike come from different tables or passages of the source.
Columns and labels:
[1] = target: T1, rat α2B (RNG gene) receptor (Rattus norvegicus, UniProt P19328); assay: RSAT (Receptor Selection and Amplification Technology) assay, alpha 2B; type: cell-based; settings: ratio of maximal effect to that of standard full agonist oxymetazoline
T1 construct: expressed in transfected cells; host or cells: NIH-3T3 cells, calcium phosphate cotransfection
T1 sequence (P19328 1-453): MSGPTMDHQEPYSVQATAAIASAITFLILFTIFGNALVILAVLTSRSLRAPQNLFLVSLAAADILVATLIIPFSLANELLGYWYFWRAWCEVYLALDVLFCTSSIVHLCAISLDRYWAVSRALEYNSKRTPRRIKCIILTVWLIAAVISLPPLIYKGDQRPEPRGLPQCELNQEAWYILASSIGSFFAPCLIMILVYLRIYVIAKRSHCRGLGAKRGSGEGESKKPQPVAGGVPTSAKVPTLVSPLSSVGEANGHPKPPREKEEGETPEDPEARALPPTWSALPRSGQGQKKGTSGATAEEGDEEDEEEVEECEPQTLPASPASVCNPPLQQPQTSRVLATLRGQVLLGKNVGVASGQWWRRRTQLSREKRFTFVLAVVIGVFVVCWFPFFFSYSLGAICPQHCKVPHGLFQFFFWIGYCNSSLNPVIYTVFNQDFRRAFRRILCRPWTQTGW
In short: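 NIH-3T3 cells transiently cotransfected with receptor, hybrid Gq/i5 protein and β-galactosidase marker were incubated with compound dilutions in triplicate for 72-96 hr at 37°. Proliferation was read as β-galactosidase activity (o-nitrophenyl-β-D-galactopyranoside, overnight at 30°, OD 420 nm). EC50 and efficacy were derived, the latter relative to a standard full agonist's maximal effect.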

[2] = test system: cynomolgus monkeys with sustained elevated IOP; assay: IOP lowering in conscious monkeys, eyes made hypertensive by argon laser photocoagulation; type: in vivo, cynomolgus monkey; settings: Macaca fascicularis, topical, single 50 μl eye drop, up to 6 hours, read-out: Maximum % Decrease From Pretreatment Levels Hypertensive Eye (IOP); for inhibition in vivo at 0.1 %: ocular dose 0.1%; for inhibition in vivo at 0.3 %: ocular dose 0.3%; for inhibition in vivo at 1 %: ocular dose 1%
From the text: Measurements of IOP were made in fully conscious female cynomolgus monkeys weighing 3-4 kg with sustained elevated IOP that was produced in the right eye by argon laser photocoagulation of the trabecular meshwork. Animals were usable for experiments 2 months following surgery. During the experiments, monkeys sat in specially designed chairs (Primate Products, San Francisco), and were fed orange juice and fruit as needed. A 30R model Digilab pneumatonometer (Alcon, Tex.) was used to measure IOP.
Twenty five μl of an anesthetic (proparacaine) was topically applied to each monkey before IOP measurements to minimize ocular discomfort due to tonometry. Two baseline measurements were made prior to instillation of the drugs, followed by periodic measurements up to 6 hours post-instillation. The test compounds were administered unilaterally as a single 50 μl eye drop; the contralateral eyes received an equal volume of saline.

[3] = test system: conscious cynomolgus monkeys; assay: Sedation score during the IOP experiments; type: in vivo, cynomolgus monkey; set-up: key to Sedation (0-4): 0=alert, typical vocalization, movement, etc.; 1=calm, less movement; 2=slightly sedated, some vocalization, responsive to stimulation; 3=sedated, no vocalization, some response to stimulation; 4=asleep
Protocol: At the same time, sedation was measured and assessed according to the following score: 0=alert, typical vocalization, movement, etc.; 1=calm, less movement; 2=slightly sedated, some vocalization, responsive to stimulation; 3=sedated, no vocalization, some response to stimulation; 4=asleep.

[4] = test system: conscious cynomolgus monkeys; assay: Cardiovascular side effects (blood pressure, heart rate) after i.v. administration; type: in vivo, cynomolgus monkey; settings: up to 6 hours, + with * = increase from base levels
From the text: Cardiovascular measurements were made in a different group of monkeys using a BP 100S automated sphygmomanometer (Nippon Colin,. Japan).

SMILES	Intrinsic Activity Relative to Oxymetazoline, Alpha 2B [1]	inhibition in vivo at 0.03 % ([2]; ocular dose 0.03%)	inhibition in vivo at 0.1 % [2]	inhibition in vivo at 0.3 % [2]	inhibition in vivo at 1 % [2]	Sedation (0-4) ([3]; ocular dose 0.03%)	Sedation (0-4) ([3]; ocular dose 0.1%)	Sedation (0-4) ([3]; ocular dose 0.3%)	Sedation (0-4) ([3]; ocular dose 1%)	Maximum % Decrease From Pretreatment Levels, Heart Rate ([4]; i.v. 500 μg/kg)	Maximum % Decrease From Pretreatment Levels, Mean Arterial Blood Pressure ([4]; i.v. 500 μg/kg)	inhibition in vivo at 1 % ([2]; 6 h)	inhibition in vivo at 0.1 % ([2]; 6 h)	inhibition in vivo at 0.3 % ([2]; 6 h)	Maximum % Decrease From Pretreatment Levels, Heart Rate ([4]; i.v. 50 μg/kg)	Maximum % Decrease From Pretreatment Levels, Mean Arterial Blood Pressure ([4]; i.v. 50 μg/kg)	Maximum % Decrease From Pretreatment Levels, Heart Rate ([4]; i.v. 3.0 μg/kg)	Maximum % Decrease From Pretreatment Levels, Mean Arterial Blood Pressure ([4]; i.v. 3.0 μg/kg)	Maximum % Decrease From Pretreatment Levels, Heart Rate ([4]; i.v. 17 μg/kg)	Maximum % Decrease From Pretreatment Levels, Mean Arterial Blood Pressure ([4]; i.v. 17 μg/kg)
c1nc(CC2CCc3sccc3C2)c[nH]1 (stereo not shown) [Example B-9a, 4(5)-(4,5,6,7-tetrahydrobenzo[b]thiophen-5-ylmethyl)-1H-imidazole]	0.46	17.6 ± 1.7%	26.7 ± 6.1%	24.8 ± 3.3%	26.8 ± 5.4%	0	0	0	0	+23.8 ± 4.4* %	+10.8 ± 3.2* %									
Cc1ccc(Cc2c[nH]cn2)o1 [Example C-7, 4(5)-(5-methylfuran-2-ylmethyl)-1H-imidazole]	0.73								0	6.1 ± 3.7%	3.0 ± 3.9%	32.3 ± 5.7%								
Cc1[nH]cnc1Cc1ccc2c(c1)OCCO2 [M, 4-(2,3-dihydrobenzo[1,4]dioxin-6-ylmethyl)-5-methyl-1H-imidazole]	0.97								0	5.5 ± 1.9%	0.8 ± 2.3%	22.5 ± 5.4%								
c1csc(Cc2c[nH]cn2)c1 [Example C-2, 4(5)-thiophen-2-ylmethyl-1H-imidazole]	1.3				29.6 ± 5.5%				0	6.5 ± 2.9%	6.6 ± 1.7%									
c1ccc2c(c1)CCC(Cc1c[nH]cn1)C2 (stereo not shown) [Example B-3b, 4(5)-(1,2,3,4-tetrahydronaphthalen-2-ylmethyl)-1H-imidazole]	0.7						0	0					25.9 ± 3.5%	31.2 ± 4.3%	10.0 ± 2.8%	2.4 ± 4.3%				
c1ccc2sc(Cc3c[nH]cn3)cc2c1 [Example C-9, 4(5)-benzo[b]thiophen-2-ylmethyl-1H-imidazole]	0.88			13.7 ± 4.5%	25.1 ± 4.9%			0	0	5.9 ± 3.3%	6.0 ± 2.2%				16 ± 3.2%	0.1 ± 3.8%	9.4 ± 3.0%	5.0 ± 2.3%	+9.4 ± 1.8* %	1.0 ± 4.1%

From patent US6841684B2, “Imidiazoles having reduced side effects” (Allergan, Inc., priority 1997, dated 2005)
